For one series, the system named is Iba-1. Briefly: LPS in vivo model: brain microgliosis by Iba-1 immunofluorescence. As to conditions: 20 mg·kg^-1 i.p.; 4 and 24 h after LPS. Set-up: species or system mouse. The procedure: Immunofluorescence labelling in in vitro and in vivo samples was performed as described in [Luengo, Enrique et al. "Implication of type 4 NADPH oxidase (NOX4) in tauopathy." Redox biology vol. 49 (2022): 102210. doi:10.1016/j.redox.2021.102210 ].
Example 2.3.1. Treatment with Compound 1 reduces LPS-induced cytokine expression and release in mouse brain. Mice were treated i.p. with a daily dose of 20 mg·kg^-1 of Compound 1 for 4 consecutive days. On the last day, LPS (0.5 mg·kg^-1) was injected i.p. one h after the compound. Thereafter, behavioural, and biochemical outcomes were analysed at different time points.
Example 2.3.2. Treatment with Compound 1 reduces LPS-induced microgliosis in mouse brain. Microglial cells constitute the immune cells of our brain; therefore, they play a key role in regulating neuroinflammation. Microgliosis was evaluated using Iba-1 as a microglial marker in immunofluorescence experiments 4 h and 24 h after the inflammatory stimuli (LPS).

A short description of series [1]: Cell viability/toxicity by the MTT method. The format is cell-based. As to conditions: human, effect of the compound per se on AREc332 cells. An excerpt:
(§1) Based on the results obtained (Table 2), Compound 1 was selected for further in vitro and in vivo studies as it was endowed with the best anti-neuroinflammatory activity. Table 2: Comparative in vitro results. Cell viability/toxicity: effect of the compound per se on cell viability of […] cells measured with the MTT method. Anti-neuroinflammatory effect: % Reduction of nitrites in primary rat glial cultures. PAMPA-BBB: In vitro blood-brain barrier permeation assay, permeation rate Pe (10-6 cm.s-1). NRF2, CD (µM): Concentration of compound that doubles de activation of NRF2. ORAC: Oxygen radical absorbance capacity. LOX-5: lipoxygenase-5.
On the technique in general: Tetrazolium dyes change colour on reduction, which living cells bring about.

The test system of a further series is NRF2. Briefly: NRF2 induction, luciferase activity in AREc32 cells. The format is cell-based. As to conditions: concentration that doubles the activation of NRF2, read-out: NRF2 CD.
Source text: Screening of NRF2 induction was quantified by luciferase activity in AREc32 cells as described in [Herrera-Arozamena, Clara et al. "Tuning melatonin receptor subtype selectivity in oxadiazolone-based analogues: Discovery of QR2 ligands and NRF2 activators with neurogenic properties." European journal of medicinal chemistry vol. 190 (2020): 112090. doi:10.1016/j.ejmech.2020.112090].
as §1

In the case of `COc1ccc2c(c1)CC(c1c[nH]c3ccc(OC)cc13)N2` (stereo not drawn) [Compound 1, 5-Methoxy-3-(5-methoxyindolin-2-yl)-1H-indole], the “mean fluorescence intensity of Iba-1 per cell” value with Iba-1 is recorded as “restored to saline levels”. In series [1], this molecule displayed a CC50 greater than 30 µM. Also, the EC (2-fold activation) in the series on NRF2 amounted to 0.56 ± 0.05 µM.

What is called CC50 is the concentration that lowers cell viability or growth by half.

(Values after patent EP4467137A1, “TREATMENT OF FRONTOTEMPORAL DEMENTIA OR FRONTOTEMPORAL LOBAR DEMENTIA” (Universidad Autónoma de Madrid, priority 2023, dated 2024).)
